For series [1] the following is noted: literature value; cited from earlier work.
Series [2] can be described thus: Excitation and emission spectra of LNPs (Example 5). Particulars: 530 nm excitation, 25° C. The format is physicochemical. The protocol: The hydrodynamic sizes of liposomes were measured with the DLS particle analyzer (NanoBrook 90PlusPALS, Brookhaven Instruments, USA). The incident angle of the 659 nm laser was 90 degrees. Samples were diluted with DI water until the count rate reaches 300-700 kcps and the temperature was set at 25° C. The excitation and emission spectra of LNPs were characterized via a spectrometer (Fluoromax-Plus-C, Horiba, Japan) using a 300 μL quartz cuvette (Hellma, Germany) with stir at 25° C. The excitation spectrum was scanned from 650-810 nm with an 830 nm LP emission filter and an emission recording wavelength at 850 nm. The emission spectrum was acquired using a 530 nm excitation light with a 550 nm LP emission filter (Semrock, USA) and recorded from 650-850 nm.

The conditions of series [3]: cited from earlier work.

On to `CC1(C)C(/C=C/C=C/C=C/C=C2\N(CCCCS(=O)(=O)O)c3ccc4ccccc4c3C2(C)C)=[N+](CCCCS(=O)(=O)[O-])c2ccc3ccccc3c21` [ICG, indocyanine green], for which, in series [1], the emission wavelength result is recorded as “around 810 nm” and the maximum absorption wavelength entry is recorded as “around 785 nm”. This compound had an emission peak in series [2] of 809 nm. Moreover, the “degradation of aqueous solutions” value in series [3] (DI water and buffered saline) is recorded as “degraded relatively quickly by day 20”. Besides, the plasma half-life in series [3] is 2 to 4 min.

The values are drawn from US20220105206A1, “SENSITIVITY ADVANCES IN ULTRASOUND SWITCHABLE FLUORESCENCE SYSTEMS AND TECHNIQUES” (Board of Regents, The University of Texas System, priority 2020, published 2022).
